Among the data in patent EP0098141A2, “Prostaglandin D analogues, process for their preparation and compositions containing them” (ONO PHARMACEUTICAL CO., LTD., priority 1982, dated 1984) are inhibition, T/C and LD50 values, retold here.

Data set [1] concerns human myelogenous leukemic cells (HL-60). Briefly: Inhibition of proliferation using human myelogenous leukemic cells (HL-60). The data set is classed as cell-based. The note with it: 96 h, HL-60 cells, stationary culture at 37°C for 4 days, surviving cell number (Trypan Blue) relative to control. The protocol: The test on the inhibition of proliferation of human myelogenous leukemic cells was conducted by a well known method. The human myelogenous leukemic cells (HL-60) were added to an RPMI culture solution containing 10% bovine fetal serum, the number of cells in the culture solution was adjusted to 1x10^5 cells/ml, a solution in ethanol of the test compound was added to give a concentration of 5µg/ml or 1 µg/ml, and the mixture was subjected to stationary culture at 37°C for 4 days. As a control, a culture solution containing 0.1% of ethanol was similarly cultured. The culture solutions were stained by the Trypan Blue staining method, and the surviving cell number was measured to determine the degree of inhibition relative to the control.

The subject of data set [2] is cells originated from human mouth tumor (KB-cells). Briefly: Inhibition of proliferation using cells originated from human mouth tumor (KB-cells). The format is cell-based. The note with it: 96 h, stationary culture at 37°C for 4 days, surviving cell number (Trypan Blue) relative to control. The protocol: The test on the inhibition of proliferation of cells originated from human mouth tumor was conducted by a well known method. The cells originated from human mouth tumor (KB-cells) were added to Eagle's MEM culture solution containing 10% bovine fetal serum, the number of cells in the culture solution was adjusted to 1x10^5 cells/ml, a solution in ethanol of the test compound was added to give a concentration of […] and the mixture was subjected to stationary culture at 37°C for 4 days. As a control, a culture solution containing 0.1% of ethanol was similarly cultured. After the culture, the culture solutions were stained by the Trypan Blue staining method, and the surviving cell number was measured to determine the degree of inhibition relative to the control.

Data set [3] concerns Ehrlich ascites tumor. Briefly: Prolongation of survival of mice inoculated with Ehrlich ascites tumor. The data set is classed as in vivo. Details: unit not given here. As to conditions: ICR mice inoculated intraperitoneally with Ehrlich ascites tumor cells (3 x 10^6/mouse) on day 0, 20 mg/kg/day intraperitoneally from day 1 to day 5. The protocol:
The test on the prolongation of survival of mice inoculated with Ehrlich ascites tumor was conducted by a well known method. ICR mice, weighing 25 - 30 g, were inoculated with Ehrlich ascites tumor cells (3 x 10^6/mouse) intraperitoneally on day 0. A test compound was administered to mice intraperitoneally at a dose of 20 mg/kg/day from day 1 to day 5. Throughout the experiments, each group consisted of six mice (eight mice in control group). The effects of the test compounds were judged by the prolongation of survival time in days. In the Table 2, T/C was calculated below. [formula]

A short description of data set [4]: Acute toxicity by intraperitoneal administration in mice. As to conditions: mouse, in vivo, ip. The protocol: The acute toxicity of the compounds of the present invention was more than 100 mg/kg by intraperitoneal administration in mice, so that the PGD analogues of the present invention may be considered to be sufficiently safe and suitable for medical use.

One may read the inhibition as the drop in the measured response relative to a control, in per cent. For the compound `CCCCC[C@H](O)/C=C/[C@H]1C(=O)C[C@H](O)[C@@H]1C/C=C\CCCC(N)=O` [Compound 9, (5Z,13E)-(9α,15S)-9,15-Dihydroxy-11-oxoprosta-5,13-dien-1-amide], the inhibition at 1 µg/mL in data set [1] was 21.5%; in data set [2], 2.8%. Further, the inhibition at 5 µg/mL in data set [1] was 97.8%; in data set [2] it was 98.8%.

In data set [1], `CCCCCC=CC=C1C(=O)C=CC1CC=CCCCC(=O)CO` (stereo not shown) [Compound 3, (5Z,9Z,14EZ)-1-Hydroxymethylprosta-5,9,12,14-tetraene-1,11-dione] displayed an inhibition at 1 µg/mL of 100% and an inhibition at 5 µg/mL of 100%. This compound showed a T/C in data set [3] of 244.6. In data set [2], this compound returned an inhibition at 1 µg/mL of 10.6% and an inhibition at 5 µg/mL of 100%.

In the case of `CCCCCC=CC=C1C(=O)C=CC1CC=CCCCC(N)=O` (stereo not shown) [Compound 11, (5Z,9Z,14EZ)-11-Oxoprosta-5,9,12,14-tetraen-1-amide], in data set [3], the T/C is 155.6. In data set [2], this compound had an inhibition at 1 µg/mL of 0.9% and an inhibition at 5 µg/mL of 100%.

In data set [1], `CCCCC[C@H](O)/C=C/[C@H]1C(=O)C=C[C@@H]1C/C=C\CCCC(=O)NS(C)(=O)=O` [Compound 4, 9-Deoxy-Δ^9-PGD2 methanesulfonylamide] came in with an inhibition at 1 µg/mL of 3.9% and an inhibition at 5 µg/mL of 1.5%. For the same compound, in data set [2], the inhibition at 1 µg/mL stood at 12.6% and the inhibition at 5 µg/mL turned out to be 25.5%.

Broadly, the LD50 is the dose at which mortality reaches 50%. For the compound `CCCCC[C@H](O)/C=C/[C@H]1C(=O)C[C@H](O)[C@@H]1C/C=C\CCCC(=O)CO` [Compound 1, 2-Decarboxy-2-glycoloyl-PGD2], the inhibition at 1 µg/mL in data set [1] was found to be 20.4%; in data set [2], 23.5%. The figures for the inhibition at 5 µg/mL in data set [1] and in data set [2] were 96.7% and 100%, respectively. Also, in data set [3], the T/C is 75.3. The LD50 in data set [4] stood at 156 mg/kg.

As for `CCCCCC=CC=C1C(=O)C=CC1CC=CCCCC(=O)NS(C)(=O)=O` (stereo not shown) [Compound 5, (5Z,9Z,14EZ)-N-Methanesulfonyl-11-oxoprosta-5,9,12,14-tetraen-1-amide], the inhibition at 1 µg/mL came to 0% in data set [1] and 0.9% in data set [2]. The inhibition at 5 µg/mL in data set [1] amounted to 78.1%; in data set [2], 34.6%.

Regarding `CCCCC[C@H](O)/C=C/[C@H]1C(=O)C[C@H](O)[C@@H]1C/C=C\CCCC(=O)N(C)C` [Compound 6, (SZ,13E)-(9a,15S)-N,N-Dimethyl-9,15-dihydroxy-11-oxoprosta-5,13-dien-1-amide], in data set [1], the inhibition at 1 µg/mL was determined as 9.9% and at 5 µg/mL the inhibition was 99.1%. In data set [2], this compound registered an inhibition at 1 µg/mL of 19.6% and an inhibition at 5 µg/mL of 100%.

As to `CCCCC[C@H](O)/C=C/[C@H]1C(=O)C=C[C@@H]1C/C=C\CCCC(N)=O` [Compound 10, (52,9Z,13E)-(15S)-11-Oxo-15-hydroxyprosta-5,9,13-trien-1-amide], the LD50 in data set [4] was found to be 167 mg/kg. In data set [2], this compound returned an inhibition at 1 µg/mL of 15.4% and an inhibition at 5 µg/mL of 100%.

In data set [1], `CCCCC[C@H](O)/C=C/[C@H]1C(=O)C=C[C@@H]1C/C=C\CCCC(=O)N(C)C` [Compound 7, (5Z,9Z,13E)-(15S)-N,N-Dimethyl-11-oxo-15-hydroxyprosta-5,9,13-trien-l-amide] showed an inhibition at 1 µg/mL of 41.8% and an inhibition at 5 µg/mL of 100%. Also, in data set [2], the inhibition at 1 µg/mL was 23.7% and the inhibition at 5 µg/mL was found to be 100%.

In data set [1], `CCCCC[C@H](O)/C=C/[C@H]1C(=O)C=C[C@@H]1C/C=C\CCCC(=O)CO` [Compound 2, 2-Decarboxy-2-glycoloyl-9-deoxy-Δ^9-PGD2] showed an inhibition at 1 µg/mL of 100% and an inhibition at 5 µg/mL of 100%. Besides, the T/C in data set [3] came out at 70.5. Moreover, in data set [2], at 1 µg/mL the inhibition was 90.9% and the inhibition at 5 µg/mL was 100%.

Take `CCCCCC=CC=C1C(=O)C=CC1CC=CCCCC(=O)N(C)C` (stereo not shown) [Compound 8, (5Z,9Z,14EZ)-N,N-Dimethyl-11-oxoprosta-5,9,12,14-tetraen-1-amide]: in data set [1], testing at 1 µg/mL gave an inhibition of 30.9% and at 5 µg/mL the inhibition was 100%. Besides, in data set [2], testing at 1 µg/mL gave an inhibition of 9.5% and at 5 µg/mL the inhibition was 100%.
